Reference: US20250275976A1, “Methods of Treating Neuroinflammatory Conditions” (Athira Pharma, Inc., priority 2022, published 2025)
Where two headings read alike, the source gives them in different places.

Tests used:
[1] = test system: primary culture of both cortical neurons and microglia; assay: Microglial activation (Iba1 area) after Aβ1-42 challenge; format: cell-based; conditions: 5 ng/ml; 15 min Pre-Aβ challenge
[2] = test system: THP-1-differentiated macrophages; assay: Pro-inflammatory cytokines in supernatants of LPS-challenged THP-1-differentiated macrophages; format: cell-based, human; set-up: key to Significant reduction in pro-inflammatory cytokine expression: IL-6 / Significant reduction in pro-inflammatory cytokine expression: TNF-α / Significant reduction in pro-inflammatory cytokine expression: IL-1β: “NS” indicates a non-significant reduction in the indicated cytokine; “+” indicates a p value <0.05 in Tukey post test; “++” indicates a p value <0.01 in Tukey post test; conditions: for Significant reduction in pro-inflammatory cytokine expression: IL-1β / Significant reduction in pro-inflammatory cytokine expression: IL-6 / Significant reduction in pro-inflammatory cytokine expression: TNF-α: LPS 24 hrs
From the text: Neuroinflammation plays a crucial role in disease progression and is a complex phenomenon involving various cells that affect many extra- and intracellular signaling pathways and cytokine production. The macrophage of the brain (microglia) is the main agent of innate immunity in the CNS and performs various functions, including neuroprotection, in response to inflammatory signals. Activated microglia participate in developing neuroinflammation, responding to toxic exogenous substances (like LPS) or endogenous substances (like amyloid-beta). Here, THP-1 cells were used as an in-vitro cell model to evaluate mechanisms relevant to CNS inflammation. Differentiation with phorbol-12-myristate-13-acetate (PMA) causes THP-1 monocyte cells to acquire functional and morphological resemblance to macrophages. LPS interacts with THP-1 differentiated macrophage through the toll-like receptor 4, triggering the inflammatory response and stimulating pro-inflammatory cytokine release and eventually leading to cellular death. Test compounds were investigated for whether they have anti-inflammatory effects on LPS-challenged macrophage cultures. THP-1-differentiated macrophages were treated with test compounds for 20 minutes, followed by 24 hrs of LPS challenge. Culture supernatants were then collected to analyzed for the presence of pro-inflammatory cytokines: interleukin 1β (IL--1β), interleukin 6 (IL-6) and tumor necrosis factor α (TNF-α).
Cytokine quantification in cell culture supernatants was accomplished by homogeneous time resolved fluorescence (HTRF) kits to assess levels of IL-1β (Human IL-1β kit, #62HIL1BPEG, Cisbio) and IL-6 (Human IL-6 kit, 62HILO6PET, Cisbio), and by ELISA (Human TNF-α ELISA kit, KHC3011, ThermoFisher) to determine the levels of TNF-α.
Data analysis was performed via 1-way ANOVA with Tukey post-test compared to LPS treatment cultures using Prism statistical software (GraphPad). Tabular data indicates significance of reduction in culture supernatants for the indicated analyte at the indicated dose.

[3] = test system: Rat primary cortical neuron cultures; assay: Neuroprotection of rat cortical neurons against LPS challenge (Cell Titer-Glo); conditions: at at least one dose tested
Protocol: (§1) To assess the neuroprotective effect of compound treatment against inflammatory insult, primary cultured cortical neurons were subjected to lipopolysaccharide (LPS) treatment for 24h along with various compound doses of compounds of Formula (I) or Compound A19. […] Rat primary cortical neuron cultures were grown at 37° C., 5% C02 in Complete Neurobasal Medium supplemented with B27/GDNF/BDNF containing 10% FBS until maturity. 25 μl of culture volume were seeded in a 384-well plate at 5,000 cells/well, and treated with 1 μM, 100 nM, 10 nM, 1 nM, or 0.1 nM of test compound for 15 minutes. Cells were then subjected to 1 μM LPS challenge for 24 hours. Luminescence measurements to assess relative levels of ATP were performed on an Envision plate reader (Perkin Elmer). Data for DMSO control were set to 100% cell viability, and each group (n=4) were averaged and presented as mean±SEM.

Prp-TDP43^A315T mice = format: in vivo
Protocol: Extranuclear accumulation of TDP-43 protein is a pathological hallmark of a number of neurological diseases. […] Male Prp-TDP43^A315T mice (N=10 mice per group) at 3 weeks of age were administered daily treatments of test compounds. Compound A19 was administered via subcutaneous injection, and Compound 5a and Compound 6a were administered via oral gavage. After 2 months of treatment, plasma samples were collected for cytokine quantification. […] Plasma IL-6 and TNF-α cytokine expression levels were determined using the ELISA method. The submandibular vein was punctured with a lancet and a blood drop was collected directly on a microtube containing EDTA as anticoagulant. Samples were centrifuged for 15 minutes at 1000×g at 4° C. within 20 minutes of collection. 20 μl of plasma supernatant was stored at −20° C. before ELISA analysis.
Plasma was diluted at 1:10 in sterile PBS, and IL-6 and TNF-α quantification was performed in duplicate for each animal using 10 μl of sample per well in 96-well plates using the ELISA method (IL-6: Signa-Aldrich Cat #RAB0308, TNF-α: Sigma-Aldrich Cat #RAB0477). Statistical analysis was carried out by 2-way ANOVA with Dunnett's multiple comparisons post-test with compound-treated samples compared to vehicle-treated samples.

[4] = test system: Rat primary cortical neuron cultures; conditions: LPS 24 h
Protocol: as §1

[5] = 2 months of treatment, doses as in the value

Q: “HGF: Hepatocyte growth factor, 5 ng/ml treatment in the microglia culture” was tested. Which “Significant decrease in Iba1 area, compared to vehicle treated (Aβ challenge)” value [1] did it give?
A: + (“+” indicates a p value < 0.05 in Fisher's LSD post-test compared to Aβ challenged)

Q: How did the “Expression of IL-1β and TNF-α (result in words)” value ([2]; at at least one tested dose) turn out when `CCC(C)CN1CC2N(Cc3ccc(OC(F)F)cc3)CCC(=O)N2[C@@H](C)C1=O` (some centres unmarked) [Compound 6a] was run?
A: significantly reduced

Q: What about the “Significant reduction in pro-inflammatory cytokine expression: IL-1β” value (“Significant reduction … IL-1β” for short) ([2]; dose 0.1 nM) of the same compound?
A: NS

Q: What about the “Significant reduction in pro-inflammatory cytokine expression: IL-6” value (“Significant reduction … IL-6” below) ([2]; dose 0.1 nM) of the same compound?
A: NS

Q: What about the “Significant reduction in pro-inflammatory cytokine expression: TNF-α” value (from here on “Significant reduction … TNF-α”) ([2]; dose 0.1 nM) of the same compound?
A: NS

Q: And the “Significant reduction … IL-1β” value ([2]; dose 10 nM)?
A: NS

Q: And the “Significant reduction … IL-6” value ([2]; dose 10 nM)?
A: NS

Q: And the “Significant reduction … TNF-α” value ([2]; dose 10 nM)?
A: NS

Q: What about the “Significant reduction … IL-1β” value ([2]; dose 1000 nM) of the same compound?
A: + (“+” indicates a p value <0.05 in Tukey post test)

Q: What about the “Significant reduction … IL-6” value ([2]; dose 1000 nM) of the same compound?
A: NS

Q: What about the “Significant reduction … TNF-α” value ([2]; dose 1000 nM) of the same compound?
A: + (“+” indicates a p value <0.05 in Tukey post test)

Q: And the “Protection of primary neurons from LPS-stimulated inflammatory toxicity (in words)” value [3]?
A: protected primary neurons from LPS-stimulated inflammatory toxicity

Q: What about the “Significant decrease in plasma cytokine expression after 2 months of treatment: IL-6” value (Prp-TDP43^A315T mice; 10 mg/kg PO daily) of the same compound?
A: ++++ (++++ = p < 0.0001)

Q: And the “Significant decrease in plasma cytokine expression after 2 months of treatment: TNF-α” value (Prp-TDP43^A315T mice; 10 mg/kg PO daily)?
A: ++++ (++++ = p < 0.0001)

Q: And the “Significant decrease in plasma cytokine expression after 2 months of treatment: IL-6” value (Prp-TDP43^A315T mice; 20 mg/kg PO daily)?
A: ++++ (++++ = p < 0.0001)

Q: And the “Significant decrease in plasma cytokine expression after 2 months of treatment: TNF-α” value (Prp-TDP43^A315T mice; 20 mg/kg PO daily)?
A: ++++ (++++ = p < 0.0001)

Q: And the “Plasma IL-6 expression (result in words)” value (Prp-TDP43^A315T mice; [5])?
A: significantly reduced expression of both cytokines at doses of 10 and 20 mg/kg

Q: And the “Plasma TNF-α expression (result in words)” value (Prp-TDP43^A315T mice; [5])?
A: significantly reduced expression of both cytokines at doses of 10 and 20 mg/kg

Q: What about the “Significance of neuroprotection vs 1 uM LPS” value (“Significance … vs 1 uM LPS” below) ([4]; dose 0.1 nM) of the same compound?
A: +++ (+++ indicates p<0.001)

Q: What about the “Significance … vs 1 uM LPS” value ([4]; dose 1 nM) of the same compound?
A: +++ (+++ indicates p<0.001)

Q: And the “Significance … vs 1 uM LPS” value ([4]; dose 10 nM)?
A: +++ (+++ indicates p<0.001)

Q: And the “Significance … vs 1 uM LPS” value ([4]; dose 100 nM)?
A: +++ (+++ indicates p<0.001)

Q: What about the “Significance … vs 1 uM LPS” value ([4]; dose 1 μM) of the same compound?
A: +++ (+++ indicates p<0.001)
